This passage reports IC50 and DC50 results from patent publication US11773085B2 (Foghorn Therapeutics Inc., priority 2018, dated 2023).

One test concerns the target BRD9 bromodomain (Homo sapiens (Human), UniProt Q9H8M2). Description: BRD9 bromodomain TR-FRET competition binding assay. Particulars: 3 nM Flag-BRD9, 3.75 nM biotinylated ligand, 90 minutes at room temperature. How it is done: Cleaved His tag was removed by purification.
A mixture of biotinylated-ligand and SureLight™ Allophycocyanin-Streptavidin (APC-SA, PerkinElmer AD0201) in 50 mM HEPES (pH 7.4), 50 mM NaCl, 1 mM TCEP (pH 7), 0.01% (v/v) Tween-20, 0.01% (w/v) bovine serum albumin was added to a white 384-well PerkinElmer Proxiplate Plus plate. DMSO or 3-fold serially diluted compounds were then added to the Proxiplate followed by addition of Flag-BRD9. After a 10 minute incubation at room temperature, Eu-W1024 anti-FLAG (PerkinElmer, AD0273) was added.

Test [1] has as its target Nanoluciferase-BRD9 fusion protein (3×FLAG-NLuc-BRD9) (Homo sapiens (Human), UniProt Q9H8M2). The experiment in a line: SYO1 BRD9 NanoLuc degradation assay. It is filed as cell-based. Particulars: SYO-1 cells expressing 3×FLAG-NLuc-BRD9, 6 hours, 1 μM top dose; read-out: SYO1 BRD9-NanoLuc degradation IC50. How it is done: A stable SYO-1 cell line expressing 3×FLAG-NLuc-BRD9 was generated. On day 0 cells were seeded in 30 μL media into each well of 384-well cell culture plates. The seeding density was 8000 cells/well. […] Subsequently plates were incubated for 6 hours in a standard tissue culture incubator and equilibrated at room temperature for 15 minutes. Nanoluciferase activity was measured by adding 15 μL of freshly prepared Nano-Glo Luciferase Assay Reagent (Promega N1130), shaking the plates for 10 minutes and reading the bioluminescence using an EnVision reader.
The Inhibition % was calculated using the following formula: % Inhibition=100×(LumHC−LumSample)/(LumHC−LumLC). DMSO treated cells are employed as High Control (HC) and 1 μM of a known BRD9 degrader standard treated cells are employed as Low Control (LC).

`COc1cc(-c2cn(C)c(=O)c3cnccc23)cc(OC)c1CN(C)CC(=O)NCCCCCCCCNC(=O)COc1cccc2c1C(=O)N(C1CCC(=O)NC1=O)C2=O` (stereo not shown) [Compound D5, N-[8-[2-([[2,6-dimethoxy-4-(2-methyl-1-oxo-1,2-dihydro-2,7-naphthyridin-4-yl)phenyl]methyl](methyl)amino)acetamido]octyl]-2-[[2-(2,6-dioxopiperidin-3-yl)-1,3-dioxo-2,3-dihydro-1H-isoindol-4-yl]oxy]acetamide] returned a 50% inhibitory concentration (IC50) on BRD9 bromodomain of less than 10 nM. Further, in test [1], the DC50 is less than 10 nM.
With `COc1cc(OCC(=O)NCCCCCCCCNc2cccc3c2C(=O)N(C2CCC(=O)NC2=O)C3=O)cc(-c2cn(C)c(=O)c3cnccc23)c1` (stereo not shown) [Compound D6, N-(8-((2-(2,6-dioxopiperidin-3-yl)-1,3-dioxoisoindolin-4-yl)amino)octyl)-2-(3-methoxy-5-(2-methyl-1-oxo-1,2-dihydro-2,7-naphthyridin-4-yl)phenoxy)acetamide], at BRD9 bromodomain, the half-inhibitory concentration (IC50) was 10 to 100 nM. In addition, the DC50 in test [1] was less than 10 nM.
With `COc1cc(-c2cn(C)c(=O)c3cnccc23)cc(OC)c1CN(C)CC(=O)N(C)CCCCCNc1cccc2c1C(=O)N(C1CCC(=O)NC1=O)C2=O` (stereo not shown) [Compound D7, 2-([[2,6-dimethoxy-4-(2-methyl-1-oxo-1,2-dihydro-2,7-naphthyridin-4-yl)phenyl]methyl](methyl)amino)-N-(5-[[2-(2,6-dioxopiperidin-3-yl)-1,3-dioxo-2,3-dihydro-1H-isoindol-4-yl]amino]pentyl)-N-methylacetamide formic acid], on BRD9 bromodomain, the IC50 lay within 10 to 100 nM. The DC50 in test [1] lay in the range of 10 to 100 nM.
In turn, `COc1cc(NCC(=O)NCCCCCCCCNc2cccc3c2C(=O)N(C2CCC(=O)NC2=O)C3=O)cc(-c2cn(C)c(=O)c3cnccc23)c1` (stereo not shown) [Compound D8, N-(8-[[2-(2,6-dioxopiperidin-3-yl)-1,3-dioxo-2,3-dihydro-1H-isoindol-4-yl]amino]octyl)-2-[[3-methoxy-5-(2-methyl-1-oxo-1,2-dihydro-2,7-naphthyridin-4-yl)phenyl]amino]acetamide formic acid] came in with an IC50 on BRD9 bromodomain of 10 to 100 nM. Also, in test [1], the DC50 is less than 10 nM.
On to `COc1cc(-c2cn(C)c(=O)c3cnccc23)cc(OCC(=O)NCCCCCCCCNc2cccc3c2C(=O)N(C2CCC(=O)NC2=O)C3=O)c1CN(C)C` (stereo not shown) [Compound D9, 2-(2-((dimethylamino)methyl)-3-methoxy-5-(2-methyl-1-oxo-1,2-dihydro-2,7-naphthyridin-4-yl)phenoxy)-N-(8-((2-(2,6-dioxopiperidin-3-yl)-1,3-dioxoisoindolin-4-yl)amino)octyl)acetamide], for which the 50% inhibitory concentration (IC50) on BRD9 bromodomain was in the range of 10 to 100 nM. The DC50 in test [1] was less than 10 nM.
Turning to `COc1cc(-c2cn(C)c(=O)c3cnccc23)cc(OCC(=O)NCCCCCCCCNc2cccc3c2C(=O)N(C2CCC(=O)NC2=O)C3=O)c1OC` (stereo not shown) [Compound D10, 2-(2,3-dimethoxy-5-(2-methyl-1-oxo-1,2-dihydro-2,7-naphthyridin-4-yl)phenoxy)-N-(8-((2-(2,6-dioxopiperidin-3-yl)-1,3-dioxoisoindolin-4-yl)amino)octyl)acetamide], the IC50 at BRD9 bromodomain was 10 to 100 nM. Also, the DC50 in test [1] is less than 10 nM.
The matching figures for `COc1cc(-c2cn(C)c(=O)c3cnccc23)cc(OC)c1CN(C)C(=O)CCCOc1cccc2c1C(=O)N(C1CCC(=O)NC1=O)C2=O` (stereo not shown) [Compound D11, N-[[2,6-dimethoxy-4-(2-methyl-1-oxo-1,2-dihydro-2,7-naphthyridin-4-yl)phenyl]methyl]-4-[[2-(2,6-dioxopiperidin-3-yl)-1,3-dioxo-2,3-dihydro-1H-isoindol-4-yl]oxy]-N-methylbutanamide]: less than 10 nM and less than 10 nM.
For `COc1cc(-c2cn(C)c(=O)c3cnccc23)cc(OC)c1CN(C)C(=O)CCCCOc1cccc2c1C(=O)N(C1CCC(=O)NC1=O)C2=O` (stereo not shown) [Compound D12, N-[[2,6-dimethoxy-4-(2-methyl-1-oxo-1,2-dihydro-2,7-naphthyridin-4-yl)phenyl]methyl]-5-[[2-(2,6-dioxopiperidin-3-yl)-1,3-dioxo-2,3-dihydro-1H-isoindol-4-yl]oxy]-N-methylpentanamide] the same measures were less than 10 nM and less than 10 nM.
In the case of `COc1cc(-c2cn(C)c(=O)c3cnccc23)cc(OC)c1CN(C)CC(=O)N(C)CCOCCOCCNc1cccc2c1C(=O)N(C1CCC(=O)NC1=O)C2=O` (stereo not shown) [Compound D13, 2-((2,6-dimethoxy-4-(2-methyl-1-oxo-1,2-dihydro-2,7-naphthyridin-4-yl)benzyl)(methyl)amino)-N-(2-(2-(2-((2-(2,6-dioxopiperidin-3-yl)-1,3-dioxoisoindolin-4-yl)amino)ethoxy)ethoxy)ethyl)-N-methylacetamide], the IC50 on BRD9 bromodomain was in the range of 10 to 100 nM. Also, the DC50 in test [1] was in the range of 10 to 100 nM.
Take `COc1cc(-c2cn(C)c(=O)c3cnccc23)cc(OC)c1CN(C)C(=O)CCOc1cccc2c1C(=O)N(C1CCC(=O)NC1=O)C2=O` (stereo not shown) [Compound D14, N-[[2,6-dimethoxy-4-(2-methyl-1-oxo-1,2-dihydro-2,7-naphthyridin-4-yl)phenyl]methyl]-3-[[2-(2,6-dioxopiperidin-3-yl)-1,3-dioxo-2,3-dihydro-1H-isoindol-4-yl]oxy]-N-methylpropanamide]: the IC50 at BRD9 bromodomain is less than 10 nM. For the same molecule, the DC50 in test [1] is more than 1000 nM.
In the case of `COc1cc(-c2cn(C)c(=O)c3cnccc23)cc(OC)c1CN(C)Cc1cccc2c1C(=O)N(C1CCC(=O)NC1=O)C2=O` (stereo not shown) [Compound D15, 4-(((2,6-dimethoxy-4-(2-methyl-1-oxo-1,2-dihydro-2,7-naphthyridin-4-yl)benzyl)(methyl)amino)methyl)-2-(2,6-dioxopiperidin-3-yl)isoindoline-1,3-dione formic acid], the IC50 on BRD9 bromodomain was 10 to 100 nM. Further, the DC50 in test [1] was more than 1000 nM.
At BRD9 bromodomain, `COc1cc(-c2cn(C)c(=O)c3cnccc23)cc(OC)c1CN(C)CC(=O)N(C)CCOCCOCCNc1ccc2c(c1)C(=O)N(C1CCC(=O)NC1=O)C2=O` (stereo not shown) [Compound D16, 2-((2,6-dimethoxy-4-(2-methyl-1-oxo-1,2-dihydro-2,7-naphthyridin-4-yl)benzyl)(methyl)amino)-N-(2-(2-(2-((2-(2,6-dioxopiperidin-3-yl)-1,3-dioxoisoindolin-5-yl)amino)ethoxy)ethoxy)ethyl)-N-methylacetamide] displayed an IC50 of 10 to 100 nM. Moreover, the DC50 in test [1] was in the range of 10 to 100 nM.
With `COc1cc(-c2cn(C)c(=O)c3cnccc23)cc(OC)c1CN(C)CCCCCCCC(=O)N[C@H](C(=O)N1C[C@H](O)C[C@H]1C(=O)NCc1ccc(-c2scnc2C)cc1)C(C)(C)C` [Compound D19, (2S,4R)-1-[(2S)-2-[8-([[2,6-dimethoxy-4-(2-methyl-1-oxo-2,7-naphthyridin-4-yl)phenyl]methyl](methyl)amino)octanamido]-3,3-dimethylbutanoyl]-4-hydroxy-N-[[4-(4-methyl-1,3-thiazol-5-yl)phenyl]methyl]pyrrolidine-2-carboxamide], the IC50 on BRD9 bromodomain was 10 to 100 nM. In test [1], the DC50 is more than 1000 nM.
In turn, `COc1cc(-c2cn(C)c(=O)c3cnccc23)cc(OC)c1CN(C)CCOCCOCC(=O)N[C@H](C(=O)N1C[C@H](O)C[C@H]1C(=O)NCc1ccc(-c2scnc2C)cc1)C(C)(C)C` [Compound D20] came in with a concentration for half-maximal inhibition (IC50) at BRD9 bromodomain of 10 to 100 nM. Also, in test [1], the DC50 was more than 1000 nM.

One may read the IC50 as the concentration that gives 50% inhibition. High values mean weaker potency, low ones greater potency.
